{
  "source": "paper PMC9415509",
  "about": "“Pro-Apoptotic Antitumoral Effect of Novel Acridine-Core Naphthoquinone Compounds against Oral Squamous Cell Carcinoma” (Molecules, 2022)",
  "key": {"[1]": {"system": "SCC9 cells", "test": "Time-lapse video microscopy", "format": "cell-based, human", "conditions": "SCC9, 2 × IC50, 72 h time-lapse", "description": "Video microscopy. […] For 72 h, phase-contrast images of the same field were captured every minute using a Hamamatsu C2400 CCD camera (Hamamatsu, Japan). The images of each experimental condition were integrated into videos using ImageJ software (National Institute of Health, Bethesda, MD, USA), and different times (indicated) were selected according to the morphological change observed during the treatment."}, "[2]": {"system": "SCC9 cells", "test": "Caspase 3/7 activity, flow cytometry", "format": "cell-based, human", "conditions": "SCC9, 2× IC50, 48 h", "description": "(§1) Phosphatidylserine exposure analysis (apoptosis). Cells of the SCC9 cell line were plated in 6-well plates (5 × 10^5 cells/well), trypsinized 48 h after treatment, labeled using the Annexin V-FITC Apoptosis Detection Kit according to the manufacturer’s protocol (#BMS500FI/300, Invitrogen), and analyzed by FACScalibur flow cytometry as in [50]. Furthermore, 5 × 10^4 SCC9 cells were plated in a 24-well plate containing 1 mL of DMEM/F12 with 10% FBS per well. CellEvent™ Caspase-3/7 Reagent (#R37111, Invitrogen) was diluted in a culture medium according to the manufacturer’s instructions. […] The cells were analyzed by flow cytometry at the time of 48 h of treatment."}, "[3]": {"system": "C57BL/6 female mice", "test": "In vivo acute toxicity study", "conditions": "14 days", "description": "In vivo acute toxicity study. The acute toxicity study for compound 4e was performed in twelve-week-old C57BL/6 female mice via intraperitoneal injection and was approved by the University Animal Ethics Board under registration number 982. All experiments were performed in accordance with Brazilian guidelines and regulations. Dosing and analysis were performed according to 423 OECD guidelines and reviewed by. Each animal group had n = 3 or 4 (as indicated) and received only one intraperitoneal injection (Day 0) of compound 4e dissolved in […] PBS and 3% DMSO. The control group animals received only 3% DMSO in PBS. The first dose of the compound was 100 mg/kg. Subsequent dose levels (200 mg/kg and 400 mg/kg) were determined based on the result obtained from the previous dosing. The animals were examined every day, twice a day, for mortality and morbidity for 14 days, when all animals were anesthetized (ketamine 100 mg/kg and xylazine 10 mg/kg) followed by cervical dislocation. Gross necropsy and histology of the main organs were performed. The animals’ body weights and average food consumption were measured every 7 days. As an indication of morbidity, the following signs were assessed: tremors; convulsion; salivation; diarrhea; lethargy; coma; pain signs; increased rear arching; and mobility impairment. The necropsy included an examination of the external characteristics of the carcass; external body orifices; the abdominal, thoracic, and cranial cavities; organs/tissues of the liver, thymus, right kidney, […], heart, and lung. Major organs were analyzed by histopathology. For more details, see Supplementary Methods."}, "[4]": {"system": "SCC9 (OSCC cell)", "test": "MTT cell viability assay (cytotoxicity), SCC9", "format": "cell-based, human", "description": "(§2) Cells and reagents. Human SCC-4, SCC-9, and SCC-25 cells, derived from a human oral tongue SCC (squamous cell carcinoma) were obtained from the ATCC (CRL-1624, CRL-1629, and CRL-1628, respectively) and maintained in 1:1 DMEM/F12 (Dulbecco’s modified Eagle medium and Ham’s F12 medium; Gibco (Thermo Fisher, Waltham, MA, USA)) supplemented with 10% (v/v) FBS (fetal bovine serum; Invitrogen, Thermo Fisher, Waltham, MA, USA) and 400 ng/mL hydrocortisone (Sigma-Aldrich Co., St. Louis, MO, USA). Primary normal human gingival fibroblasts were obtained from the ATCC (PCS-201-018) and maintained in DMEM supplemented with 10% (v/v) FBS and were used in a maximum of six passages. The cells were grown in a humidified environment containing 5% CO2 at 37 °C. […] Carboplatin stock was prepared in water (Fauldcarbo®; LibbsFarmacêutica, São Paulo, SP, Brazil) and was used as a standard anticancer compound.\n(§3) Cell viability assay (cytotoxicity) and compound stability assay. The viability of SCC cell lines and primary human fibroblast cells was evaluated using the MTT assay as in [48]. Briefly, the cells were grown in triplicates in 96-well plates (5 × 10^3 cells/well) until confluence. Then, the medium was removed, fresh medium was added, and the cells were returned to the incubator in the presence of different compounds. DMSO at the same concentrations was used as a 100% cell viability control. After 48 h, the cells were incubated with 5 mg/mL MTT reagent (3-(4,5-dimethyl-2-thiazolyl)-2,5-diphenyl-2-H-tetrazolium bromide) (Sigma-Aldrich Co., St. Louis, MO, USA) for 3.5 h. After that, formazan crystals were dissolved in MTT solvent solution (DMSO/methanol 1:1 v/v) and the absorbance at 560 nm was evaluated using an EPOCH microplate spectrophotometer (BioTek Instruments, Winooski, VT, USA) with the background absorbance at 670 nm subtracted.\n(§4) Statistical analysis, IC50 calculation. The data are presented as means ±\\SD. IC50 values for the MTT assays were obtained by nonlinear regression using the […] 5.0 program (Intuitive Software for Science, San Diego, CA, USA) from at least three independent experiments. A dose–response (inhibitor) vs. response curve using the least squares method was used to determine the IC50, SD, and R^2 of the data. The selectivity index was calculated as SI = IC50 of the compound in normal oral fibroblast cells/IC50 of the same compound for each oral cancer cell line (SCC-4, SCC-9, and SCC-25) and the mean was calculated when indicated."}, "[5]": {"system": "SCC9 cells", "test": "Phosphatidylserine exposure analysis (Annexin V/PI)", "format": "cell-based, human", "conditions": "SCC9, 48 h", "description": "as §1"}, "[6]": {"system": "SCC25 OSCC cell line", "test": "MTT cell viability assay (cytotoxicity), SCC25", "format": "cell-based, human", "description": "as §2, §3, §4"}, "[7]": {"test": "MTT cell viability assay, normal fibroblasts", "format": "cell-based, human", "conditions": "human, primary normal human gingival fibroblasts (ATCC PCS-201-018)", "description": "as §2, §3, §4"}, "[8]": {"system": "Primary normal human gingival fibroblasts", "test": "MTT cell viability assay, normal fibroblasts", "format": "cell-based", "conditions": "Homo sapiens, Fibroblast; primary gingival fibroblasts, 48 h, MTT; read-out: Primary Gingival Fibroblast IC50", "description": "as §2, §3, §4"}},
  "note": "“And” between values parts separate entries of the source, which are not always exact repeats. Identical values can stand only once.",
  "data": [
    {"smiles": "CC1(C)CC(=O)C2=C(C1)NC1=C(C(=O)c3ccccc3C1=O)C2c1ccc(Cl)cc1Cl", "note": "(stereo not drawn) [4e, 12-(2,4-dichlorophenyl)-3,3-dimethyl-3,4-dihydrobenzo[b]acridine-1,6,11(2H,5H,12H)-trione]", "values": [
      {"measurement": "cell morphology", "setting": "[1]", "result": "formation of membrane blebs at early times, between 16 and 48 h, followed by cells shrinkage"},
      {"measurement": "active caspase 3/7 labeling, cells", "setting": "[2]", "result": "52.4% and ~ 52%"},
      {"measurement": "Change in Body Weight", "setting": "[3]; 100 mg/kg single i.p. dose", "result": "Absent"},
      {"measurement": "Change in Food Consumption", "setting": "[3]; 100 mg/kg single i.p. dose", "result": "Absent"},
      {"measurement": "Gross Necropsy", "setting": "[3]; 100 mg/kg single i.p. dose", "result": "No alteration"},
      {"measurement": "Histology", "setting": "[3]; 100 mg/kg single i.p. dose", "result": "No significant alteration in comparison to control"},
      {"measurement": "Morbidity", "setting": "[3]; 100 mg/kg single i.p. dose", "result": "Absent"},
      {"measurement": "Change in Body Weight", "setting": "[3]; 200 mg/kg single i.p. dose", "result": "Absent"},
      {"measurement": "Change in Food Consumption", "setting": "[3]; 200 mg/kg single i.p. dose", "result": "Absent"},
      {"measurement": "Gross Necropsy", "setting": "[3]; 200 mg/kg single i.p. dose", "result": "No alteration"},
      {"measurement": "Histology", "setting": "[3]; 200 mg/kg single i.p. dose", "result": "Presence of mild Perivascular and periportal lymphocyte focus and Bronchus-Associated Lymphoid Tissue (BALT)"},
      {"measurement": "Morbidity", "setting": "[3]; 200 mg/kg single i.p. dose", "result": "Absent"},
      {"measurement": "Change in Body Weight", "setting": "[3]; 400 mg/kg single i.p. dose", "result": "Absent"},
      {"measurement": "Change in Food Consumption", "setting": "[3]; 400 mg/kg single i.p. dose", "result": "Absent"},
      {"measurement": "Gross Necropsy", "setting": "[3]; 400 mg/kg single i.p. dose", "result": "No alteration"},
      {"measurement": "Histology", "setting": "[3]; 400 mg/kg single i.p. dose", "result": "Presence of mild Perivascular and periportal lymphocyte focus and Bronchus-Associated Lymphoid Tissue (BALT)"},
      {"measurement": "Morbidity", "setting": "[3]; 400 mg/kg single i.p. dose", "result": "Absent"},
      {"measurement": "IC50", "setting": "[4]; Homo sapiens, SCC-9, SCC9, 48 h, MTT (Table 1), read-out: SCC9—Oral Cancer IC50", "result": 14.7, "unit": "µM"},
      {"measurement": "SCC9 S.I.", "setting": "[4]; IC50 normal oral fibroblasts / IC50 SCC9", "result": 6.0},
      {"measurement": "Annexin V and Annexin V + PI staining", "setting": "[5]", "result": "increased single (Annexin V) and double (Annexin V + PI) staining"},
      {"measurement": "IC50", "setting": "[6]; Homo sapiens, SCC-25, SCC25, 48 h, MTT, read-out: Oral Tumor Cells SCC25 IC50", "result": 21.5, "unit": "µM"},
      {"measurement": "SCC25 S.I.", "setting": "[6]; IC50 normal oral fibroblasts / IC50 SCC25", "result": 4.1},
      {"measurement": "viability at 48 h", "setting": "[7]", "result": "> 75", "unit": "%"},
      {"measurement": "IC50", "setting": "[8]", "result": 88, "unit": "µM"}
    ]}
  ]
}
